Like-named read-outs stand apart in the source and are kept apart here.
Tests used:
[1] = target: T1, SETD2(1434-1711) (Homo sapiens, UniProt Q9BYW2); experiment: SETD2 (1434-1711) assay; assay type: biochemical; conditions: read-out: SETD2 (1434-1711)
T1 construct: SETD2 (1434-1711) Assay; catalogue N/A
T1 sequence (Q9BYW2 1434-1711): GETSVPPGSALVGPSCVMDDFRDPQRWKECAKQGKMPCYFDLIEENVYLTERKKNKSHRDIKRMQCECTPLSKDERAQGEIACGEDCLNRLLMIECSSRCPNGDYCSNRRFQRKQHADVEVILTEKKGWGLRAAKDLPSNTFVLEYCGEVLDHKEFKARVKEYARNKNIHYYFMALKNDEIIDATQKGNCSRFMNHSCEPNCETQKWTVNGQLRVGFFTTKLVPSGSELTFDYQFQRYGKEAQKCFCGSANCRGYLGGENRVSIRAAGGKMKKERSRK

[2] = tested on: H3K36me3 in A549 cells; experiment: In-Cell Western (ICW) assay of SETD2 inhibitors (A549 assay); assay type: cell-based, human; conditions: A549 cells, read-out: SETD2 A549
Procedure, shortened: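 A549 cells seeded at 4,000/well onto compound and incubated 3 days at 37° C. Methanol-fixed cells stained overnight at 4° C with anti-H3K36me3 (1:1000), then IRDye 800CW secondary with DRAQ5 DNA counterstain. Plates read by Licor imaging at 700 and 800 channels.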

Row | Structure (SMILES) | IC50 [1] [nM] | IC50 ([2]; Homo sapiens) [nM] | IC50 [2] [nM]
1 | CC(=O)N1CCC(C(N)=O)(c2cc(F)cc(NC(=O)c3cc4c(F)ccc(C)c4[nH]3)c2)CC1 [compound 267] | 10 | 700 | –
2 | Cc1ccc(F)c2cc(C(=O)Nc3cccc(N4CCC(O)(C5CCN(C)CC5)CC4)c3)[nH]c12 [compound 268] | 60 | 700 | –
3 | COc1ccnc(C(NC(=O)c2cc3c(F)ccc(C)c3[nH]2)C2CC2)c1C (stereo not shown) [compound 269] | 100 | 700 | –
4 | Cc1ccc(NC(=O)c2cc3c(F)ccc(C)c3[nH]2)cc1N1CCN(C)CC1 [compound 270] | 50 | 800 | –
5 | CC(=O)N1CCN(c2cc(F)cc(NC(=O)c3cc4c(F)cccc4[nH]3)c2)CC1 [compound 271] | 200 | 800 | –
6 | Cc1ccc(F)c2cc(C(=O)Nc3cc(CF)cc(N4CCC(N(C)C)CC4)c3)[nH]c12 [compound 274] | 40 | 800 | –
7 | Cc1ccc(F)c2cc(C(=O)Nc3cccc(N4CCN(C)CC4CO)c3)[nH]c12 (stereo not shown) [compound 277] | 200 | 900 | –
8 | Cc1ccc(F)c2cc(C(=O)Nc3cccc(N4CCCN(C)CC4)c3)[nH]c12 [compound 279] | 40 | 900 | –
9 | Cc1ccc(F)c2cc(C(=O)Nc3cccc(N4CCN(C(C)C)CC4C)c3)[nH]c12 (stereo not shown) [compound 280] | 100 | 900 | –
10 | Cc1ccc(F)c2cc(C(=O)Nc3cccc(-n4cnnc4)c3)[nH]c12 [compound 281] | 200 | 900 | –
11 | Cc1ccc(F)c2cc(C(=O)Nc3cccc(C4CCC(N(C)C)C4)c3)[nH]c12 (stereo not shown) [compound 282] | 40 | 1000 | –
12 | Cc1ccc(F)c2cc(C(=O)Nc3cccc(C4CCNC4)c3)[nH]c12 (stereo not shown) [compound 283] | 40 | 1000 | –
13 | Cc1ccc(F)c2cc(C(=O)Nc3cccc(N4CC5CC4CO5)c3)[nH]c12 (stereo not shown) [compound 284] | 200 | 1000 | –
14 | Cc1ccc(F)c2cc(C(=O)Nc3cccc(-c4ccccn4)c3)[nH]c12 [compound 285] | 40 | 1000 | –
15 | Cc1ccc(F)c2cc(C(=O)Nc3cccc(-c4cn5ccccc5n4)c3)[nH]c12 [compound 286] | 100 | 1000 | –
16 | Cc1ccc(F)c2cc(C(=O)Nc3cccc(N4CCOC5(CC5)C4)c3)[nH]c12 [compound 287] | 200 | 1000 | –
17 | Cc1ccc(F)c2cc(C(=O)Nc3cccc(N4C5CCC4COC5)c3)[nH]c12 [compound 291] | 300 | 1100 | –
18 | CC(=O)N1CC2CC1CN2c1cccc(NC(=O)c2cc3c(F)ccc(C)c3[nH]2)c1 (stereo not shown) [compound 292] | 700 | – | 1100
19 | CNC(=O)CCc1cccc(NC(=O)c2cc3c(F)ccc(C)c3[nH]2)c1 [compound 293] | 400 | 1100 | –
20 | Cc1ccc(F)c2cc(C(=O)Nc3cccc(C4CCC5C(CCN5C)C4)c3)[nH]c12 (stereo not shown) [compound 294] | 30 | 1100 | –

Row | Structure (SMILES) | IC50 [1] [nM] | IC50 ([2]; Homo sapiens) [nM] | IC50 [2] [nM]
21 | CC(=O)N1CCN(c2nccc(NC(=O)c3cc4c(F)ccc(C)c4[nH]3)n2)CC1 [compound 295] | 300 | 1100 | –
22 | Cc1ccc(F)c2cc(C(=O)Nc3cccc(-c4ncno4)c3)[nH]c12 [compound 296] | 100 | 1100 | –
23 | Cc1ccc(F)c2cc(C(=O)Nc3cccc(N4CCCCC4)c3)[nH]c12 [compound 297] | 100 | 1100 | –
24 | Cc1ccc(F)c2cc(C(=O)Nc3cccc([C@@H]4CC[C@H](N(C)C)C4)c3)[nH]c12 [compound 302] | 30 | 1200 | –
25 | Cc1ccc(F)c2cc(C(=O)Nc3cccc(N4CC[C@@H](N(C)C)C[C@@H]4C)c3)[nH]c12 [compound 303] | 60 | 1200 | –
26 | Cc1ccc(F)c2cc(C(=O)Nc3cccc(-c4ncn[nH]4)c3)[nH]c12 [compound 304] | 300 | – | 1200
27 | Cc1ccc(F)c2cc(C(=O)Nc3cccc(N4CCOCC4C4CC4)c3)[nH]c12 (stereo not shown) [compound 306] | 400 | 1200 | –
28 | Cc1ccc(F)c2cc(C(=O)Nc3cccc(C4COCCN4)c3)[nH]c12 (stereo not shown) [compound 307] | 200 | 1200 | –
29 | Cc1cc(Cn2ccnc2)cnc1C(NC(=O)c1cc2cccc(C)c2[nH]1)C1CC1 (stereo not shown) [compound 309] | 200 | 1300 | –
30 | Cc1ccc(F)c2cc(C(=O)Nc3cccc(N4CCCC(N)C4)c3)[nH]c12 (stereo not shown) [compound 310] | 50 | 1300 | –
31 | Cc1ccc(F)c2cc(C(=O)Nc3cccc(C(C)(C)O)c3)[nH]c12 [compound 315] | 600 | 1400 | –
32 | Cc1ccc(F)c2cc(C(=O)Nc3cccc(-c4ncccn4)c3)[nH]c12 [compound 316] | 100 | 1400 | –
33 | Cc1cn(Cc2cnc(C(NC(=O)c3cc4c(F)ccc(C)c4[nH]3)C3CC3)c(C)c2)c(C)n1 (stereo not shown) [compound 317] | 100 | 1400 | –
34 | Cc1ccc(F)c2cc(C(=O)Nc3cccc(N4CCN(C)CC4C)c3)[nH]c12 (stereo not shown) [compound 318] | 200 | 1400 | –
35 | Cc1c(NC(=O)c2cc3c(F)ccc(C)c3[nH]2)cccc1N1CCN(C)CC1 [compound 320] | 200 | 1400 | –
36 | Cc1ccc(F)c2cc(C(=O)Nc3cccc(N4CCNCC4=O)c3)[nH]c12 [compound 321] | 200 | 1500 | –
37 | Cc1ccc(F)c2cc(C(=O)Nc3cccc(OCCN(C)C)c3)[nH]c12 [compound 323] | 70 | 1500 | –
38 | Cc1ccc(F)c2cc(C(=O)Nc3cccc([C@H]4CC[C@@H](N(C)C)C4)c3)[nH]c12 [compound 324] | 50 | 1500 | –
39 | Cc1ccc(F)c2cc(C(=O)Nc3cccc(N(C)C4CCNCC4)c3)[nH]c12 [compound 325] | 70 | 1500 | –

More lines, now with the values ahead:

Row | IC50 [1] [nM] | IC50 ([2]; Homo sapiens) [nM] | IC50 [2] [nM] | Structure (SMILES)
40 | 200 | 700 | – | Cc1ccc(F)c2cc(C(=O)Nc3cccc(N4CCOCC4CO)c3)[nH]c12 (stereo not shown) [compound 265]
41 | 60 | 700 | – | Cc1ccc(F)c2cc(C(=O)Nc3cccc(-c4cccc(CN(C)C)c4)c3)[nH]c12 [compound 266]
42 | 100 | 800 | – | Cc1ccc(F)c2cc(C(=O)Nc3cccc(-c4cccc5nccn45)c3)[nH]c12 [compound 272]
43 | 200 | 800 | – | Cc1cc(Cn2cc[nH]c2=O)cnc1C(NC(=O)c1cc2c(F)ccc(C)c2[nH]1)C1CC1 (stereo not shown) [compound 273]
44 | 90 | 900 | – | Cc1ccc(F)c2cc(C(=O)Nc3cccc(-n4cnc(CN(C)C)n4)c3)[nH]c12 [compound 276]
45 | 70 | – | 900 | Cc1ccc(F)c2cc(C(=O)Nc3cccc(-c4ccc5cncn5c4)c3)[nH]c12 [compound 278]
46 | 300 | – | 1000 | CNC(=O)CCCc1cccc(NC(=O)c2cc3c(F)ccc(C)c3[nH]2)c1 [compound 288]
47 | 400 | 1100 | – | Cc1ccc(F)c2cc(C(=O)Nc3cccc(N4CC(C)OCC4C)c3)[nH]c12 (stereo not shown) [compound 289]
48 | 400 | 1100 | – | Cc1ccc(F)c2cc(C(=O)Nc3cccc(-c4cnn5ccccc45)c3)[nH]c12 [compound 290]
49 | 300 | 1100 | – | CC(=O)N1[C@@H](C)CN(c2cccc(NC(=O)c3cc4c(F)ccc(C)c4[nH]3)c2)C[C@@H]1C [compound 298]
50 | 200 | 1100 | – | Cc1ccc(F)c2cc(C(=O)Nc3cccc(-c4ncn5ccccc45)c3)[nH]c12 [compound 299]
51 | 200 | 1200 | – | Cc1ccc(F)c2cc(C(=O)Nc3cccc(CC(N)=O)c3)[nH]c12 [compound 300]
52 | 100 | 1200 | – | Cc1ccc(F)c2cc(C(=O)Nc3cccc(N4CC[C@@H](N(C)C)[C@@H](F)C4)c3)[nH]c12 [compound 301]
53 | 500 | 1200 | – | CC(=O)N(C)C1CCCN(C2COCC(NC(=O)c3cc4c(F)ccc(C)c4[nH]3)C2)C1 (stereo not shown) [compound 305]
54 | 100 | 1300 | – | Cc1ccc(F)c2cc(C(=O)Nc3cccc(N4CC[C@@H](N(C)C)C[C@H]4C)c3)[nH]c12 [compound 308]
55 | 30 | 1300 | – | Cc1ccc(F)c2cc(C(=O)Nc3cc(C(F)F)cc(N4CCC(N(C)C)CC4)c3)[nH]c12 [compound 311]
56 | 800 | 1300 | – | Cc1ccc(F)c2cc(C(=O)Nc3cccc(N4CCN(c5ccccc5)CC4)c3)[nH]c12 [compound 312]
57 | 30 | 1300 | – | Cc1ccc(F)c2cc(C(=O)Nc3cc(F)cc([C@H]4CC[C@H](N(C)C)CC4)c3)[nH]c12 [compound 313]
58 | 40 | 1300 | – | Cc1ccc(F)c2cc(C(=O)Nc3cccc(NC(=O)C4CCCN4)c3)[nH]c12 (stereo not shown) [compound 314]
59 | 100 | 1400 | – | Cc1ccc(F)c2cc(C(=O)Nc3cccc(-c4nnc(N)o4)c3)[nH]c12 [compound 319]
60 | 500 | 1500 | – | Cc1ccc(F)c2cc(C(=O)Nc3cccc(-c4ccn[nH]4)c3)[nH]c12 [compound 322]
61 | 200 | 1600 | – | CNc1cccc(-c2cccc(NC(=O)c3cc4c(F)ccc(C)c4[nH]3)c2)n1 [compound 326]
62 | 500 | – | 1600 | Cc1ccc(F)c2cc(C(=O)NC3C(=O)NCCc4ccccc43)[nH]c12 (stereo not shown) [compound 327]

Source: US12116358B2, “Substituted indoles and methods of use thereof” (EPIZYME, INC., priority 2018, dated 2024)
